Read-outs that look alike come from different tables or passages of the source.

Results on seven molecules are retold here after patent US20120121591A1 (priority 2009, published 2012).

Type in all cases: cell-based
One assay has as its target hKv1.3 (Homo sapiens, UniProt P22001). As to the kind of experiment: cell-based.
Assay [1] concerns IL-2 secretion from T cells in human whole blood. Conditions: read-out: WB (IL-2) IC50 (nM, Avg).
Assay [2] relates to IFN-g secretion from T cells in human whole blood.
The mark [3] stands for this setting: read-out: WB (IFNg) IC50 (nM, Avg).

Sequence of hKv1.3 (P22001 whole entry): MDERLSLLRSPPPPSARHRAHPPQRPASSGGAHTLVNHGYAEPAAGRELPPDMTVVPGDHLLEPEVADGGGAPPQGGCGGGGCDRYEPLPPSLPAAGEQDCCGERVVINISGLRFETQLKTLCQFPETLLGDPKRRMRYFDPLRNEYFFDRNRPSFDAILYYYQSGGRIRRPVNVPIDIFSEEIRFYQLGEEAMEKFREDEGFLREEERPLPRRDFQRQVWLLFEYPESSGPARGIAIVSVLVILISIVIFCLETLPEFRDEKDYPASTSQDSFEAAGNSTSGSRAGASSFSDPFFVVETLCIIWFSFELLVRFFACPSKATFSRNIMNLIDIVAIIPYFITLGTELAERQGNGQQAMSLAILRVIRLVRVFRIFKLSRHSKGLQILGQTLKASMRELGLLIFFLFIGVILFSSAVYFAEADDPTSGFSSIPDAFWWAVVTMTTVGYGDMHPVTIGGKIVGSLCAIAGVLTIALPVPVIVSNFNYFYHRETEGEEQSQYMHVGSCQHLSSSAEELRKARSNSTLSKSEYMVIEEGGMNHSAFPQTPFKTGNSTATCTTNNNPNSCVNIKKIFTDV

Consider `CCCC[C@@H]1NC(=O)[C@H](CO)NC(=O)[C@H](Cc2c[nH]cn2)NC(=O)[C@H](CCC(=O)O)NC(=O)[C@@H]2CSSC[C@@H]3NC(=O)[C@H]([C@@H](C)O)NC(=O)[C@H](CCCNC(=N)N)NC(=O)[C@H](CCCNC(=N)N)NC(=O)[C@H](CSSC[C@H](NC(=O)[C@H](CCCNC(=N)N)NC(=O)[C@H](CO)NC(=O)[C@H](CCCCN)NC(=O)[C@@H]4CCCN4C(=O)[C@H]([C@@H](C)CC)NC(=O)[C@H]([C@@H](C)O)NC(=O)[C@H](CC(=O)O)NC(=O)[C@H]([C@@H](C)CC)NC(=O)[C@@H](NC(=O)[C@H](CO)NC(=O)[C@@H](N)CCCNC(=N)N)CSSC[C@@H](C(N)=O)NC(=O)[C@H]([C@@H](C)O)NC(=O)CNC3=O)C(=O)N[C@@H]([C@@H](C)O)C(=O)N[C@@H](C)C(=O)N[C@@H](C)C(=O)N[C@@H](CCCCN)C(=O)N2)NC(=O)[C@H](Cc2ccccc2)NC(=O)[C@H](CO)NC(=O)[C@H](CC(C)C)NC(=O)[C@H](CCCNC(=N)N)NC(=O)[C@H](Cc2ccc(O)cc2)NC(=O)[C@H](CCCCN)NC1=O`, for which the IC50 on hKv1.3 (Kv1.3 (IWQ) IC50 (nM, Avg)) stood at 0.398 nM; in assay [1] it was 1.32 nM; in assay [2] (setting [3]) it was 2.03 nM.
Taken in the same sequence, the figures for `CCCC[C@@H]1NC(=O)[C@H](CO)NC(=O)[C@H](Cc2c[nH]cn2)NC(=O)[C@H](CCCCN)NC(=O)[C@@H]2CSSC[C@@H]3NC(=O)[C@H]([C@@H](C)O)NC(=O)[C@H](CCCNC(=N)N)NC(=O)[C@H](CCCCN)NC(=O)[C@H](CSSC[C@H](NC(=O)[C@H](CCCNC(=N)N)NC(=O)[C@H](CO)NC(=O)[C@H](CCCCN)NC(=O)[C@@H]4CCCN4C(=O)[C@H]([C@@H](C)CC)NC(=O)[C@H]([C@@H](C)O)NC(=O)[C@H](CC(=O)O)NC(=O)[C@H](CCC(=O)O)NC(=O)[C@@H](NC(=O)[C@H](CO)NC(=O)[C@@H](N)CCCNC(=N)N)CSSC[C@@H](C(N)=O)NC(=O)[C@H]([C@@H](C)O)NC(=O)CNC3=O)C(=O)N[C@@H]([C@@H](C)O)C(=O)N[C@@H](C)C(=O)N[C@@H](Cc3ccccc3)C(=O)N[C@@H](CCCCN)C(=O)N2)NC(=O)[C@H](Cc2ccccc2)NC(=O)[C@H](Cc2cccc3ccccc23)NC(=O)[C@H](CC(C)C)NC(=O)[C@H](CCCNC(=N)N)NC(=O)[C@H](Cc2ccc(O)cc2)NC(=O)[C@H](CCCCN)NC1=O` were 1.66 nM, 10.7 nM and 17.4 nM.
Regarding `CCCC[C@@H]1NC(=O)[C@H](CO)NC(=O)[C@H](Cc2c[nH]cn2)NC(=O)[C@H](CCCNC(=N)N)NC(=O)[C@@H]2CSSC[C@@H]3NC(=O)[C@H]([C@@H](C)O)NC(=O)[C@H](CCCNC(=N)N)NC(=O)[C@H](CCCCN)NC(=O)[C@H](CSSC[C@H](NC(=O)[C@H](CCCNC(=N)N)NC(=O)[C@H](CO)NC(=O)[C@H](CCCCN)NC(=O)[C@@H]4CCCN4C(=O)[C@H]([C@@H](C)CC)NC(=O)[C@H]([C@@H](C)O)NC(=O)[C@H](CC(=O)O)NC(=O)[C@H](CCC(=O)O)NC(=O)[C@@H](NC(=O)[C@H](CO)NC(=O)[C@@H](N)CCCNC(=N)N)CSSC[C@@H](C(N)=O)NC(=O)[C@H]([C@@H](C)O)NC(=O)CNC3=O)C(=O)N[C@@H]([C@@H](C)O)C(=O)N[C@@H](C)C(=O)N[C@@H](Cc3ccccc3)C(=O)N[C@@H](CCCCN)C(=O)N2)NC(=O)[C@H](Cc2ccccc2)NC(=O)[C@H](CO)NC(=O)[C@H](CC(C)C)NC(=O)[C@H](CCCNC(=N)N)NC(=O)[C@H](Cc2ccc(O)cc2)NC(=O)[C@H](CCCCN)NC1=O`, the IC50 on hKv1.3 (Kv1.3 (IWQ) IC50 (nM, Avg)) amounted to 0.269 nM; in assay [1], 1.96 nM; in assay [2] (setting [3]) it was 1.33 nM.
Regarding 30kDaPEG-ShK, the IC50 worked out at 1.93 nM with hKv1.3 (read-out: Kv1.3 (IWQ) IC50 (nM, Avg)); 0.372 nM in assay [1]; 2.42 nM in assay [2] (setting [3]).
As to `CC[C@H](C)[C@@H]1NC(=O)[C@@H](NC(=O)[C@H](CO)NC(=O)[C@@H](N)CCCNC(=N)N)CSSC[C@@H](C(=O)O)NC(=O)[C@H](CCC(=O)O)NC(=O)CNC(=O)[C@@H]2CSSC[C@@H]3NC(=O)[C@H](CCC(N)=O)NC(=O)[C@H](Cc4ccccc4)NC(=O)[C@H](C)NC(=O)[C@H]([C@@H](C)O)NC(=O)[C@H](CSSC[C@H](NC(=O)[C@H](Cc4ccccc4)NC(=O)[C@H](CO)NC(=O)[C@H](CC(C)C)NC(=O)[C@H](CCCNC(=N)N)NC(=O)[C@H](Cc4ccc(O)cc4)NC(=O)[C@H](CCCCN)NC(=O)[C@H](CCSC)NC(=O)[C@H](CO)NC(=O)[C@H](Cc4c[nH]cn4)NC(=O)[C@H](CCCCN)NC3=O)C(=O)N[C@@H](CCCNC(=N)N)C(=O)N[C@@H](CCCCN)C(=O)N[C@@H]([C@@H](C)O)C(=O)N2)NC(=O)[C@H](CCCNC(=N)N)NC(=O)[C@H](CO)NC(=O)[C@H](CCCCN)NC(=O)[C@@H]2CCCN2C(=O)[C@H]([C@@H](C)CC)NC(=O)[C@H]([C@@H](C)O)NC(=O)[C@H](CC(=O)O)NC1=O` [[Glu34]ShK], the IC50 on hKv1.3 (Kv1.3 (IWQ) IC50 (nM, Avg)) worked out at 0.067 nM; in assay [2] (read-out: WB (IFNg) IC5- (nM, Avg)), 0.123 nM.
For the molecule `CC[C@H](C)[C@@H]1NC(=O)[C@@H](NC(=O)[C@H](CO)NC(=O)[C@@H](N)CCCNC(=N)N)CSSC[C@@H](C(=O)O)NC(=O)[C@H]([C@@H](C)O)NC(=O)CNC(=O)[C@@H]2CSSC[C@@H]3NC(=O)[C@H](CCC(N)=O)NC(=O)[C@H](Cc4ccccc4)NC(=O)[C@H](C)NC(=O)[C@H]([C@@H](C)O)NC(=O)[C@H](CSSC[C@H](NC(=O)[C@H](Cc4ccccc4)NC(=O)[C@H](CO)NC(=O)[C@H](CC(C)C)NC(=O)[C@H](CCCNC(=N)N)NC(=O)[C@H](Cc4ccc(O)cc4)NC(=O)[C@H](CCCCN)NC(=O)[C@H](CCSC)NC(=O)[C@H](CO)NC(=O)[C@H](Cc4c[nH]cn4)NC(=O)[C@H](CCCCN)NC3=O)C(=O)N[C@@H](CCCNC(=N)N)C(=O)N[C@@H](CCCCN)C(=O)N[C@@H]([C@@H](C)O)C(=O)N2)NC(=O)[C@H](CCCNC(=N)N)NC(=O)[C@H](CO)NC(=O)[C@H](CCCCN)NC(=O)[C@@H]2CCCN2C(=O)[C@H]([C@@H](C)CC)NC(=O)[C@H](CCCCN)NC(=O)[C@H](CC(=O)O)NC1=O` [[Lys6]ShK], the IC50 against hKv1.3 (Kv1.3 (IWQ) IC50 (nM, Avg)) was 0.085 nM; in assay [2] (setting [3]), 0.21 nM.
For `CC[C@H](C)[C@@H]1NC(=O)[C@@H](NC(=O)[C@H](CO)NC(=O)[C@@H](N)CCCNC(=N)N)CSSC[C@@H](C(N)=O)NC(=O)[C@H]([C@@H](C)O)NC(=O)CNC(=O)[C@@H]2CSSC[C@@H]3NC(=O)[C@H](CCCCN)NC(=O)[C@H](Cc4ccccc4)NC(=O)[C@H](C)NC(=O)[C@H]([C@@H](C)O)NC(=O)[C@H](CSSC[C@H](NC(=O)[C@H](Cc4ccccc4)NC(=O)[C@H](CO)NC(=O)[C@H](CC(C)C)NC(=O)[C@H](CCCNC(=N)N)NC(=O)[C@H](Cc4ccc(O)cc4)NC(=O)[C@H](CCCCN)NC(=O)[C@H](CC(N)=O)NC(=O)[C@H](CO)NC(=O)[C@H](Cc4c[nH]cn4)NC(=O)[C@H](CCCCN)NC3=O)C(=O)N[C@@H](CCCNC(=N)N)C(=O)N[C@@H](CCCCN)C(=O)N[C@@H]([C@@H](C)O)C(=O)N2)NC(=O)[C@H](CCCNC(=N)N)NC(=O)[C@H](CO)NC(=O)[C@H](CCCCN)NC(=O)[C@@H]2CCCN2C(=O)[C@H]([C@@H](C)CC)NC(=O)[C@H]([C@@H](C)O)NC(=O)[C@H](CC(=O)O)NC1=O` [[Lys16, Asn21]ShK-amide], the IC50 against hKv1.3 (Kv1.3 (IWQ) IC50 (nM, Avg)) was 0.167 nM; in assay [1], 3.24 nM.
